From PubChem BioAssay (NCI)
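In this assay, cells in 96-well plates receive the compound at five concentrations for 48 hours. Endpoints are linearly interpolated between the surrounding concentrations. Here, GI50 denotes the concentration required for 50% inhibition of growth. The concentration for full growth arrest is given as TGI.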

Legend:
Experiment in all cases: NCI tumour cell line growth inhibition, 48 h
SNB-19 CNS = tested on: SNB-19 CNS
OVCAR-5 ovarian = tested on: OVCAR-5 ovarian
UO-31 renal = tested on: UO-31 renal
EKVX NSCLC = tested on: EKVX NSCLC
SK-MEL-28 melanoma = tested on: SK-MEL-28 melanoma
SW-620 colon = tested on: SW-620 colon
NCI/ADR-RES ovarian = tested on: NCI/ADR-RES ovarian
SF-268 CNS = tested on: SF-268 CNS
NCI-H23 lung = tested on: NCI-H23 lung
SF-295 CNS = tested on: SF-295 CNS

Structure (SMILES)	GI50 (SNB-19 CNS) [µM]	TGI (SNB-19 CNS) [µM]	GI50 (OVCAR-5 ovarian) [µM]	TGI (OVCAR-5 ovarian) [µM]	GI50 (UO-31 renal) [µM]	TGI (UO-31 renal) [µM]	GI50 (EKVX NSCLC) [µM]	TGI (EKVX NSCLC) [µM]	GI50 (SK-MEL-28 melanoma) [µM]	TGI (SK-MEL-28 melanoma) [µM]	GI50 (SW-620 colon) [µM]	TGI (SW-620 colon) [µM]	GI50 (NCI/ADR-RES ovarian) [µM]	TGI (NCI/ADR-RES ovarian) [µM]	GI50 (SF-268 CNS) [µM]	TGI (SF-268 CNS) [µM]	GI50 (NCI-H23 lung) [µM]	TGI (NCI-H23 lung) [µM]	GI50 (SF-295 CNS) [µM]	TGI (SF-295 CNS) [µM]
CN1CCN(Cn2nc(-c3cc(F)c(Cl)cc3Cl)oc2=S)CC1	35.2	> 100	> 100	> 100	74.1	> 100	> 100	> 100	28.6	> 100	20	39.4	83.6	> 100	34.2	> 100	76.5	> 100	42.4	> 100
COc1cccc2c1C(=O)c1c(O)c3c(c(O)c1C2=O)CC(O)(C(C)=O)CC3O (stereo not given)	–	32.8	–	24.1	–	28.8	–	20.6	–	44.3	–	32.7	–	22.4	–	31.9	–	16.4	–	19.5
O=c1[nH]c(-c2ccc(Cl)cc2)cc2ccsc12	–	7.71	–	> 100	–	> 100	–	> 100	–	> 100	–	> 100	–	> 100	–	> 100	–	> 100	–	23.4
